The values that follow come from patent US12678446B2 (PFIZER INC., priority 2020, dated 2026).

pEC50: −log10 of the molar value. Bounds are passed on as bounds.

Series [1] deals with RSV (RSV A2 ECACC, 0709161v). The experiment in a line: RSV plaque reduction assay. In kind it is cell-based, respiratory syncytial virus. The note with it: human respiratory syncytial virus, HepG2, read-out: RSV A2 Plaque EC50, RSV A2 in Hep-G2 cells; mean of at least two experiments unless noted (n = 1). The essentials: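 Eight-point compound dilutions were premixed with RSV A2 (100 PFU/well) and applied to confluent Hep-G2 cells for 2 h, followed by a 2-day incubation at 37° C. under compound-containing 0.8% CMC overlay. EC50 comes from immunostained plaque counts relative to untreated virus wells, averaged over ≥2 runs.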
Background: Plaques are areas of infected cells; plaque reduction assays count them against a control.

Another series can be described thus: cell toxicity CC50. In kind it is cell-based. The note with it: human; Hep-G2 cells; mean of at least two experiments; read-out: Cell Cytotoxicity CC50.

In general, pEC50 refers to the negative decadic logarithm of the EC50, by convention in mol/L. A word on the CC50: it is the concentration at which the toxic effect on the cells reaches its halfway point. Consider `COc1cccc(F)c1-c1nn2c(c1C(=O)N[C@H]1N=C(c3ccccc3)c3cccc(F)c3NC1=O)OCCC2` [Example 139, 2-(2-Fluoro-6-methoxyphenyl)-N-[(3S)-9-fluoro-2-oxo-5-phenyl-1,3-dihydro-1,4-benzodiazepin-3-yl]-6,7-dihydro-5H-pyrazolo[5,1-b][1,3]oxazine-3-carboxamide], for which, in series [1], the pEC50 was 7.18. For the same molecule, the CC50 in “cell toxicity CC50” is above 25000 nM.

In the case of `Cc1cccc(F)c1-c1nn2c(c1C(=O)N[C@H]1N=C(c3ccccc3)c3cccc(F)c3NC1=O)OCCC2` [Example 140, 2-(2-Fluoro-6-methylphenyl)-N-[(3S)-9-fluoro-2-oxo-5-phenyl-1,3-dihydro-1,4-benzodiazepin-3-yl]-6,7-dihydro-5H-pyrazolo[5,1-b][1,3]oxazine-3-carboxamide], the negative logarithm of the EC50 (pEC50) in series [1] is 7.42. Also, the CC50 in “cell toxicity CC50” was above 25000 nM.

With `C[C@@H]1CCn2nc(-c3ccc(S(C)(=O)=O)cc3F)c(C(=O)N[C@H]3N=C(c4ccccc4)c4ccccc4NC3=O)c2O1` [Example 141, (5R)-2-(2-Fluoro-4-methylsulfonylphenyl)-5-methyl-N-[(3S)-2-oxo-5-phenyl-1,3-dihydro-1,4-benzodiazepin-3-yl]-6,7-dihydro-5H-pyrazolo[5,1-b][1,3]oxazine-3-carboxamide], the pEC50 in series [1] is 7.70. Besides, in “cell toxicity CC50”, the CC50 was above 25000 nM.

In the case of `NC(=O)c1ccc(-c2nn3c(c2C(=O)N[C@H]2N=C(c4ccccc4)c4cccc(F)c4NC2=O)OCCC3)c(F)c1` [Example 142, 2-(4-Carbamoyl-2-fluorophenyl)-N-[(3S)-9-fluoro-2-oxo-5-phenyl-1,3-dihydro-1,4-benzodiazepin-3-yl]-6,7-dihydro-5H-pyrazolo[5,1-b][1,3]oxazine-3-carboxamide], the pEC50 in series [1] was 6.55. In addition, the CC50 in the series “cell toxicity CC50” was above 25000 nM.

`CS(=N)(=O)c1ccc(-c2nn3c(c2C(=O)N[C@H]2N=C(c4ccccc4)c4cccc(F)c4NC2=O)OCCC3)c(F)c1` (stereo partly drawn) [Example 143, 2-[2-Fluoro-4-(methylsulfonimidoyl)phenyl]-N-[(3S)-9-fluoro-2-oxo-5-phenyl-1,3-dihydro-1,4-benzodiazepin-3-yl]-6,7-dihydro-5H-pyrazolo[5,1-b][1,3]oxazine-3-carboxamide]: the pEC50 in series [1] is 6.83. In addition, in “cell toxicity CC50”, the CC50 was above 25000 nM.

For `COC1CN(c2ccc(-c3nn4c(c3C(=O)N[C@H]3N=C(c5ccccc5)c5cccc(F)c5NC3=O)O[C@H](C)CC4)cn2)C1` [Example 144, (5R)-N-[(3S)-9-fluoro-2-oxo-5-phenyl-1,3-dihydro-1,4-benzodiazepin-3-yl]-2-[6-(3-methoxyazetidin-1-yl)pyridin-3-yl]-5-methyl-6,7-dihydro-5H-pyrazolo[5,1-b][1,3]oxazine-3-carboxamide], the pEC50 in series [1] was 7.00. Besides, the CC50 in “cell toxicity CC50” was above 25000 nM.

Take `CO[C@@H]1CCN(c2ccc(-c3nn4c(c3C(=O)N[C@H]3N=C(c5ccccc5)c5cccc(F)c5NC3=O)O[C@H](C)CC4)cn2)C1` [Example 145, (5R)-N-[(3S)-9-fluoro-2-oxo-5-phenyl-1,3-dihydro-1,4-benzodiazepin-3-yl]-2-[6-[(3R)-3-methoxypyrrolidin-1-yl]pyridin-3-yl]-5-methyl-6,7-dihydro-5H-pyrazolo[5,1-b][1,3]oxazine-3-carboxamide]: the pEC50 in series [1] is 6.56. Moreover, the CC50 in the series “cell toxicity CC50” was above 25000 nM.

On to `CO[C@H]1CCN(c2ccc(-c3nn4c(c3C(=O)N[C@H]3N=C(c5ccccc5)c5cccc(F)c5NC3=O)O[C@H](C)CC4)cn2)C1` [Example 146, (5R)-N-[(3S)-9-fluoro-2-oxo-5-phenyl-1,3-dihydro-1,4-benzodiazepin-3-yl]-2-[6-[(3S)-3-methoxypyrrolidin-1-yl]pyridin-3-yl]-5-methyl-6,7-dihydro-5H-pyrazolo[5,1-b][1,3]oxazine-3-carboxamide], for which the pEC50 in series [1] was 6.53. Further, in “cell toxicity CC50”, the CC50 was above 25000 nM.

Regarding `Cn1ncc2c(-c3nn4c(c3C(=O)N[C@H]3N=C(c5ccccc5)c5cccc(F)c5NC3=O)OCCC4)cccc21` [Example 147, N-[(3S)-9-fluoro-2-oxo-5-phenyl-1,3-dihydro-1,4-benzodiazepin-3-yl]-2-(1-methylindazol-4-yl)-6,7-dihydro-5H-pyrazolo[5,1-b][1,3]oxazine-3-carboxamide], the pEC50 in series [1] was 6.86. Further, the CC50 in the series “cell toxicity CC50” is above 25000 nM.

Turning to `CC(C)n1cc(-c2nn3c(c2C(=O)N[C@H]2N=C(c4ccccc4)c4cccc(F)c4NC2=O)OCCC3)cn1` [Example 148, N-[(3S)-9-fluoro-2-oxo-5-phenyl-1,3-dihydro-1,4-benzodiazepin-3-yl]-2-(1-propan-2-ylpyrazol-4-yl)-6,7-dihydro-5H-pyrazolo[5,1-b][1,3]oxazine-3-carboxamide], in series [1], the pEC50 is 7.14. For the same molecule, in the series “cell toxicity CC50”, the CC50 was above 25000 nM.

Consider `Cn1ncc2c(-c3nn4c(c3C(=O)N[C@H]3N=C(c5ccccc5)c5ccccc5NC3=O)OCCC4)cccc21` [Example 149, 2-(1-Methylindazol-4-yl)-N-[(3S)-2-oxo-5-phenyl-1,3-dihydro-1,4-benzodiazepin-3-yl]-6,7-dihydro-5H-pyrazolo[5,1-b][1,3]oxazine-3-carboxamide], for which, in series [1], the pEC50 is 6.71. Besides, the CC50 in the series “cell toxicity CC50” was above 25000 nM.

`O=C(N[C@H]1N=C(c2ccccc2)c2cccc(F)c2NC1=O)c1c(-c2cnn(CC(F)(F)F)c2)nn2c1OCCC2` [Example 150, N-[(3S)-9-fluoro-2-oxo-5-phenyl-1,3-dihydro-1,4-benzodiazepin-3-yl]-2-[1-(2,2,2-trifluoroethyl)pyrazol-4-yl]-6,7-dihydro-5H-pyrazolo[5,1-b][1,3]oxazine-3-carboxamide]: the pEC50 in series [1] is 7.21. Further, in “cell toxicity CC50”, the half-maximal cytotoxic concentration (CC50) was above 25000 nM.

On to `O=C(N[C@H]1N=C(c2ccccc2)c2ccccc2NC1=O)c1c(-c2cnn(CC(F)(F)F)c2)nn2c1OCCC2` [Example 151, N-[(3S)-2-oxo-5-phenyl-1,3-dihydro-1,4-benzodiazepin-3-yl]-2-[1-(2,2,2-trifluoroethyl)pyrazol-4-yl]-6,7-dihydro-5H-pyrazolo[5,1-b][1,3]oxazine-3-carboxamide], for which the pEC50 in series [1] was 6.97. In addition, the CC50 in “cell toxicity CC50” is above 25000 nM.

In the case of `O=C(N[C@H]1N=C(c2ccccc2)c2cccc(F)c2NC1=O)c1c(-c2cnn(C3CCOCC3)c2)nn2c1OCCC2` [Example 152, N-[(3S)-9-Fluoro-2-oxo-5-phenyl-1,3-dihydro-1,4-benzodiazepin-3-yl]-2-[1-(oxan-4-yl)pyrazol-4-yl]-6,7-dihydro-5H-pyrazolo[5,1-b][1,3]oxazine-3-carboxamide], the pEC50 in series [1] was 7.08. Besides, the CC50 in the series “cell toxicity CC50” is above 25000 nM.

For `C[C@@H]1CCn2nc(-c3ccc(CO)cc3F)c(C(=O)N[C@H]3N=C(c4ccccc4)c4ccccc4NC3=O)c2O1` [Example 154, (5R)-2-[2-Fluoro-4-(hydroxymethyl)phe-nyl]-5-methyl-N-[(3S)-2-oxo-5-phenyl-1,3-dihydro-1,4-benzodiazepin-3-yl]-6,7-dihydro-5H-pyrazolo[5,1-b][1,3]oxazine-3-carboxamide], the pEC50 in series [1] was 7.04. In addition, the CC50 in “cell toxicity CC50” is above 25000 nM.

Consider `C[C@@H]1CCn2nc(-c3ccc(CO)nc3)c(C(=O)N[C@H]3N=C(c4ccccc4)c4cccc(F)c4NC3=O)c2O1` [Example 155, (5R)-N-[(3S)-9-fluoro-2-oxo-5-phenyl-1,3-dihydro-1,4-benzodiazepin-3-yl]-2-[6-(hydroxymethyl)pyri-din-3-yl]-5-methyl-6,7-dihydro-5H-pyrazolo[5,1-b][1,3]oxazine-3-carboxamide], for which, in series [1], the pEC50 is 6.66. Also, the CC50 in the series “cell toxicity CC50” is above 25000 nM.
